Key:
[1] = tested on: epiretinal membrane formation; conditions: human patients; cited from earlier work
[2] = tested on: CTGF; assay: TGF-β1 stimulated CTGF in human lung fibroblasts, Western Blot; type: cell-based; conditions: 30 μM; 30 minutes pre-treatment before TGF-β1
Source text: (§1) Transforming growth factor-beta one (TGF-β1) and alpha-Thrombin (α-Thrombin) are known to be involved in the pathogenesis of fibrotic disease. In an in vitro model of pulmonary fibrosis, TGF-β1 stimulates myofibroblast differentiation of human lung fibroblasts characterized by expression of contractile smooth muscle (SM)-specific proteins such as SM-alpha-actin (SM-α-actin). TGF-β1 also stimulates SM-α-actin expression in human lung fibroblasts which parallels a profound induction of serum response factor (SRF) expression and activity. Increased contractile gene expression with SM-α-actin as marker, increased SRF, increased connective tissue growth factor (CTGF) and increased matrix genes (e.g. fibronectin) are examples of effects observed during myofibroblast differentiation. Myofibroblast differentiation is induced by stimulation with TGF-β1 thereby increasing markers of differentiation.
(§2) Human lung fibroblasts were pre-treated with Palomid 529 for 30 minutes prior to TGF-β1 stimulation. Western Blot with antibodies against CTGF, SRG, SM-α-actin and β-actin is shown.

[3] = tested on: detached retina (Müller cells, microglia and macrophages, photoreceptors); assay: Experimental retinal detachment, single intravitreal injection (Example 1); type: in vivo, rabbit
[4] = tested on: detached retina (Müller cells); assay: Experimental retinal detachment, Müller cell proliferation and glial scar formation (Example 2); type: in vivo, rabbit; conditions: 600 micrograms intravitreally in PBS, versus PBS
Experimental: Methods: Experimental retinal detachments were made in the right eyes of pigmented rabbits. Six hundred micrograms of Palomid 529 in 50 microliters of PBS, or PBS alone was injected intravitreally on day 0, immediately after retinal detachment. Each rabbit received 10 micrograms of BrdU intravitreally on day 3. Animals were sacrificed on day 3 or 7, at which time the tissue was fixed in paraformaldahyde, embedded in agarose and sectioned at 100 microns. The sections were labeled with anti-BrdU, to detect dividing cells, and anti-vimentin, to identify Müller cells. Labeling was imaged on an Olympus Fluoview confocal microscope, and the resultant digital images were analyzed to determine the number of proliferating cells as well as the number and length of subretinal glial scars.

[5] = Half-life in the vitreous; type: in vivo
[6] = tested on: p-AKT(S473); assay: AKT phosphorylation in human lung fibroblasts, Western Blot; type: cell-based; conditions: 30 μM
Experimental: Human lung fibroblasts are stimulated for one hour with either TGF-β1 or α-Thrombin in presence of 30 μM Palomid 529 to effect activation of signal transduction proteins. p-AKT(S473) and AKT levels are measured by Western Blot. Scanning software, Scion Image (Scion Corporation, Frederick, Md.), was used to digitize bands on Western Blot for numeric calculation of percent inhibition described in text.

[7] = tested on: SRF; assay: TGF-β1 stimulated SRF in human lung fibroblasts, Western Blot; type: cell-based; conditions: 30 μM; 30 minutes pre-treatment before TGF-β1
Source text: as §1, §2

[8] = tested on: SM-α-actin; assay: TGF-β1 stimulated SM-α-actin in human lung fibroblasts, Western Blot; type: cell-based; conditions: 30 μM; 30 minutes pre-treatment before TGF-β1
Source text: as §1, §2

[9] = 7-day detachment, versus control

O=c1[nH]cc(F)c(=O)[nH]1 [5-fluorouracil]
reducing epiretinal membrane formation [1]: not effective

COc1ccc(COc2cc3oc(=O)c4cc(C(C)O)ccc4c3cc2OC)cc1 (stereo not shown) [Palomid 529]
inhibition of TGF-β1 stimulated increase of CTGF [2]: 18% | average number of anti-BrdU labeled Müller cell nuclei ([3]; 3-day detachment, 600 μg intravitreally, vehicle control 10.79): 1.19 /mm of retina | reduction of average number of subretinal scars [3, 9]: approximately 4 fold | reduction of length of subretinal scars [3, 9]: more than 20 fold | average number of subretinal scars ([3]; 7-day detachment, 600 μg intravitreally, control 2.03): 0.39 /mm of retina | total number of isolectin B4 labeled cells (microglia and macrophages) ([3]; 7-day detachment, 600 μg intravitreally, control 43.9): 24.5 /mm retina | average number of anti-BrdU labeled Müller cell nuclei ([3]; 7-day detachment, 600 μg intravitreally, vehicle control 9.83): 1.49 /mm of retina | average thickness of the ONL ([3]; 7 days of detachment, 600 μg intravitreally, normal retina 34.45 μm, vehicle 19.40 μm): 27.21 μm | average length of subretinal scars ([3]; day 7, 600 μg intravitreally, control 131.28 μm): 11.01 μm | number of BrdU labeled Müller cells per millimeter ([4]; 3 and 7 day time points): statistically significant decrease | number and size of sub-retinal scars ([4]; day 7): significant decrease | expected half-life in the vitreous [5]: at least 3 months | inhibition of basal level of AKT phosphorylation ([6]; basal, stated with the TGF-β1 result): 13% | decrease of AKT phosphorylation in the absence of α-Thrombin (basal level) ([6]; basal, stated with the α-Thrombin result): 15% | inhibition of phosphorylation of AKT stimulated by TGF-β1 ([6]; one hour TGF-β1): 27% | decrease of AKT phosphorylation in the presence of α-Thrombin ([6]; one hour α-Thrombin): 15% | inhibition of TGF-β1 stimulated increase of SRF [7]: 29% | inhibition of TGF-β1 stimulated increase of SM-α-actin [8]: 65%
